Data as given in patent US9034876B2, “Treatment of chronic inflammation with a 1,2,4-triazolo [1,5a] pyridine derivative” (Cephalon, Inc., priority 2010, dated 2015).

Test system: phospho-STAT3
Assay: CAIA model, paw phospho-STAT3 (Luminex bead assay)
Format: in vivo, female DBA/1 mice
Conditions: Dex 1.5 mg/kg i.p. three times a week (day 6-8)
Method: DBA/1 female mice were injected i.v. with purified anti-collagen type II antibodies, then given 25 μg of LPS i.p. three days later to induce arthritis by day 5. Mice that met the arthritis criteria score of 1 per paw were entered into the study. Compound A was provided orally, b.i.d., for all doses tested; Dex was provided at 1.5 mg/kg three times a week, i.p.; and vehicle (PEG400+1% DMSO) was provided orally.
The graphed data was generated using Luminex® bead kits, concentration in units per ml per 3 mg of total protein as determined by the BSA assay. The graphed data represents mean±SEM, statistics were performed using 2-way ANOVA analysis.
To investigate the effect of Compound A on levels of phosphorylated STATs and cytokines in the paws of treated mice, a method was developed whereby synovial fluid and cellular joint extracts could be obtained from the paws and ankles of diseased animals for analysis using multiplex bead arrays [32]. […] Consequently, multiplex analysis was used as the primary method of measuring phosphorylated STATs for all experiments described herein.
Briefly, the front (including carpus) and back (including tarsus) right paws were collected and frozen in dry-ice cooled isopentane and stored at −80° C. until use. The paws were cut to 2 mm×2 mm segments and kept on dry-ice in round bottom polypropylene tubes. Seven hundred microliters tissue extraction buffer containing protease inhibitor cocktail (Calbiochem, San Diego, Calif.) and Halt phosphatase inhibitor cocktail (Thermo Scientific, Rockford, Ill.) or Roche phosphatase inhibitor cocktail (Roche, Indianapolis, Ind.) in tissue extraction reagent I (Invitrogen, Carlesbad, Calif.) were added to each sample. Samples were homogenized frozen using a PT 10-35 Polytron homogenizer. After homogenization, samples were centrifuged at 4° C. for 2000×g for 10 minutes and supernatants re-centrifuged at 4° C. at maximum speed, 14,000×g, for 15 minutes. Supernatants were carefully removed to avoid picking up the top layer of lipids/adipose debris. Protein concentration was measured using a BCA protein assay (Pierce, Rockford, Ill.) and adjusted to 3 mg/ml. A minimum of 25 μl of this extraction was used in the above described protocol using the mouse cytokine 10-plex bead kit (Invitrogen, Carlsbad, Calif.) or phosphorylated STAT1, 3, 5a/b, 3-plex kit (Invitrogen, Carlsbad, Calif.).

Q: `C[C@@H]1C[C@H]2[C@@H]3CCC4=CC(=O)C=C[C@]4(C)[C@@]3(F)[C@@H](O)C[C@]2(C)[C@@]1(O)C(=O)CO` [Dex, Dexamethasone, reference compound] was tested. Which “time post treatment initiation at which the pSTAT3 reduction was reached” value did it give?
A: Its value is 48 hours.
